From PMC3725505 (Scientific Reports, 2013)

Target: Kelch domain of human Keap1 (residues 321–609) (Homo sapiens, UniProt Q14145)
Test: Isothermal titration calorimetry
Format: binding
Details: ITC, pH 7; for TΔS (entropy term upon binding) / ΔG (change in Gibbs free energy upon binding) / ΔH (change in enthalpy upon binding): T = 298.15 K, 50 mM sodium phosphate, 100 mM NaCl, 1 mM DTT, Table 1 set; for Kd: Kd to Kelch, 25°C

Sequence of Kelch domain of human Keap1 (residues 321–609) (Q14145 321-609): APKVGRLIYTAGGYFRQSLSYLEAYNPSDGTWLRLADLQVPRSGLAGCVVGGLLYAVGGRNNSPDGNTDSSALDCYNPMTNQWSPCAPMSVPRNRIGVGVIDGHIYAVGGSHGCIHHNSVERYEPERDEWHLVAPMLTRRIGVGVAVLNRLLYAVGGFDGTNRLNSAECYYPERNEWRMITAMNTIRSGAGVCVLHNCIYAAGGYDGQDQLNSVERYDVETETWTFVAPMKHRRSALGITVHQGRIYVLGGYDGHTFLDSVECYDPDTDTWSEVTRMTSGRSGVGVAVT

| Molecule | TΔS (entropy term upon binding) | ΔG (change in Gibbs free energy upon binding) | ΔH (change in enthalpy upon binding) | Kd |
| --- | --- | --- | --- | --- |
| Ac-FAQLQLDPETGEFLPIQPAQ-NH2 [NRF2 site 1 E78P] | -5.64 kcal/mol | -11.12 ± 0.03 kcal/mol | -16.76 ± 0.05 kcal/mol |  |
| Ac-ANGNAENEENGEQEADNEVD-NH2 [PTMA iso 1] | -8.02 kcal/mol | -6.72 ± 0.05 kcal/mol | -14.74 ± 0.12 kcal/mol |  |
| Ac-SLEEPHSPETGEKVVAGEVN-NH2 [WTX] | -9.03 kcal/mol | -9.01 ± 0.04 kcal/mol | -18.04 ± 0.09 kcal/mol | 0.1 to 0.2 µM |
| Ac-ANGNANEENGEQEADNEVD-NH2 [PTMA iso 2] | -9.69 kcal/mol | -7.60 ± 0.03 kcal/mol | -17.29 ± 0.06 kcal/mol |  |
| Ac-INVRKRNVESGEEELASKLD-NH2 [PGAM5] | -10.05 kcal/mol | -9.07 ± 0.03 kcal/mol | -19.12 ± 0.06 kcal/mol |  |
| CC[C@H](C)[C@H](NC(=O)[C@@H]1CCCN1C(=O)[C@H](CC(C)C)NC(=O)[C@H](Cc1ccccc1)NC(=O)[C@H](CCC(=O)O)NC(=O)CNC(=O)[C@@H](NC(=O)[C@H](CCC(=O)O)NC(=O)[C@H](CCC(=O)O)NC(=O)[C@H](CC(=O)O)NC(=O)[C@H](CC(C)C)NC(=O)[C@H](CCC(N)=O)NC(=O)[C@H](CC(C)C)NC(=O)[C@H](CCC(N)=O)NC(=O)[C@H](C)NC(=O)[C@H](Cc1ccccc1)NC(C)=O)[C@@H](C)O)C(=O)N[C@@H](CCC(N)=O)C(=O)N1CCC[C@H]1C(=O)N[C@@H](C)C(=O)N[C@@H](CCC(N)=O)C(N)=O [NRF2 site 1] | -6.56 kcal/mol | -10.40 ± 0.03 kcal/mol | -16.96 ± 0.05 kcal/mol |  |
| CSCC[C@H](NC(=O)[C@H](CCC(N)=O)NC(=O)[C@H](CC(C)C)NC(=O)[C@H](CO)NC(=O)[C@H](CCC(N)=O)NC(=O)[C@H](CC(C)C)NC(=O)[C@H](CCC(=O)O)NC(=O)CNC(=O)[C@@H](NC(=O)[C@H](CO)NC(=O)[C@@H]1CCCN1C(=O)[C@H](CC(=O)O)NC(=O)[C@@H](NC(=O)[C@H](CCC(=O)O)NC(=O)[C@H](CCCCN)NC(=O)[C@H](CO)NC(=O)[C@H](CO)NC(=O)[C@H](CC(C)C)NC(C)=O)C(C)C)[C@@H](C)O)C(=O)N1CCC[C@H]1C(=O)N[C@@H](CCC(=O)O)C(N)=O [p62] | -10.34 kcal/mol | -8.04 ± 0.03 kcal/mol | -18.38 ± 0.07 kcal/mol | > 1 µM |
